{"source": "patent US20250027035A1", "about": "“HEAVY METAL-ANTIBIOTIC MULTIPLE RESISTANT BACTERIA AND ITS APPLICATION” (priority 2023, published 2025)"}
{"system": "Rossellomorea oryzaecorticis ZC255", "test": "Metal tolerance of the strain in 2216E liquid medium containing heavy metal", "format": "cell-based", "details": "2216E liquid medium containing the heavy metal", "procedure": "• Step 1: the single colonies in Embodiment 1 ‘2.1 morphological characteristics’ are selected and added to the 2216E liquid medium for 24 h to obtain the seed liquid, and then it is added to the liquid containing heavy metals or antibiotics for 48 h. • Step 2: the concentration of heavy metals/antibiotics before and after the addition of seed solution is measured by atomic absorption.\nIn addition, the highest tolerance concentration of the strain to Cd2+is 820 mg/L; the highest tolerance concentration of Zn2+, Ni2+, Pb2+and Cr3+is 2660 mg/L, 1210 mg/L, 1640 mg/L and 400 mg/L respectively.", "units": {"maximum (highest) tolerance concentration of the strain": "mg/L"}}
{"compound": "[Ni+2]", "note": "[Ni2+]", "maximum (highest) tolerance concentration of the strain": 1210}
{"compound": "[Zn+2]", "note": "[Zn2+]", "maximum (highest) tolerance concentration of the strain": 2660}
{"compound": "[Cd+2]", "note": "[Cd2+]", "maximum (highest) tolerance concentration of the strain": 820}
{"compound": "[Pb+2]", "note": "[Pb2+]", "maximum (highest) tolerance concentration of the strain": 1640}
{"compound": "[Cr+3]", "note": "[Cr3+]", "maximum (highest) tolerance concentration of the strain": 400}
{"system": "Rossellomorea oryzaecorticis ZC255", "test": "Drug sensitivity test of strains (antibiotic tolerance); for Results of drug sensitivity test of strains: key: R: resistance; S: sensitivity; I: betweenness", "format": "cell-based", "details": "not given"}
{"compound": "CO/N=C(\\C(=O)N[C@@H]1C(=O)N2C(C(=O)O)=C(CSc3nc(=O)c(=O)[nH]n3C)CS[C@H]12)c1csc(N)n1", "note": "[Ceftriaxone]", "Results of drug sensitivity test of strains": "R", "drug sensitivity of the strain, result in words": "drug resistance"}
{"compound": "CCn1cc(C(=O)O)c(=O)c2cc(F)c(N3CCNCC3)cc21", "note": "[Norfloxacin]", "Results of drug sensitivity test of strains": "R", "drug sensitivity of the strain, result in words": "drug resistance"}
{"compound": "CC[C@H]1OC(=O)[C@H](C)[C@@H](O[C@H]2C[C@@](C)(OC)[C@@H](O)[C@H](C)O2)[C@H](C)[C@@H](O[C@@H]2O[C@H](C)C[C@H](N(C)C)[C@H]2O)[C@](C)(O)C[C@@H](C)C(=O)[C@H](C)[C@@H](O)[C@]1(C)O", "note": "[Erythromycin]", "Results of drug sensitivity test of strains": "R", "drug sensitivity of the strain, result in words": "drug resistance"}
{"compound": "Penicillin", "Results of drug sensitivity test of strains": "S"}
{"compound": "CO/N=C(\\C(=O)N[C@@H]1C(=O)N2C(C(=O)O)=C(COC(C)=O)CS[C@H]12)c1csc(N)n1", "note": "[Cefotaxime]", "Results of drug sensitivity test of strains": "I"}
{"compound": "CCC[C@@H]1C[C@@H](C(=O)N[C@@H]([C@H]2O[C@H](SC)[C@H](O)[C@@H](O)[C@H]2O)[C@@H](C)O)N(C)C1", "note": "[Lincomycin]", "Results of drug sensitivity test of strains": "R", "drug sensitivity of the strain, result in words": "drug resistance"}
{"compound": "O=C(N[C@H](CO)[C@H](O)c1ccc([N+](=O)[O-])cc1)C(Cl)Cl", "note": "[Chloramphenicol]", "Results of drug sensitivity test of strains": "S"}
{"compound": "[H]/N=C(/N)N[C@H]1[C@H](O)[C@@H](O)[C@H](O[C@@H]2O[C@@H](C)[C@](O)(C=O)[C@H]2O[C@@H]2O[C@@H](CO)[C@H](O)[C@@H](O)[C@@H]2NC)[C@@H](N/C(N)=N\\[H])[C@@H]1O", "note": "[Streptomycin]", "Results of drug sensitivity test of strains": "R", "drug sensitivity of the strain, result in words": "drug resistance"}
{"compound": "CO[C@H]1/C=C/O[C@@]2(C)Oc3c(C)c(O)c4c(O)c(c(/C=N/N5CCN(C)CC5)c(O)c4c3C2=O)NC(=O)/C(C)=C\\C=C\\[C@H](C)[C@H](O)[C@@H](C)[C@@H](O)[C@@H](C)[C@H](OC(C)=O)[C@@H]1C", "note": "[Rifampicin]", "Results of drug sensitivity test of strains": "I"}
{"compound": "CC1(C)S[C@@H]2[C@H](NC(=O)[C@H](N)c3ccccc3)C(=O)N2[C@H]1C(=O)O", "note": "[Ampicillin]", "Results of drug sensitivity test of strains": "S"}
{"compound": "Gentamicin", "Results of drug sensitivity test of strains": "R", "drug sensitivity of the strain, result in words": "drug resistance"}
{"compound": "NC[C@H]1O[C@H](O[C@H]2[C@H](O)[C@@H](O[C@H]3O[C@H](CO)[C@@H](O)[C@H](N)[C@H]3O)[C@H](N)C[C@@H]2N)[C@H](O)[C@@H](O)[C@@H]1O", "note": "[Kanamycin]", "Results of drug sensitivity test of strains": "R"}
{"compound": "CC[C@H]1OC(=O)[C@H](C)[C@@H](O[C@H]2C[C@@](C)(OC)[C@@H](O)[C@H](C)O2)[C@H](C)[C@@H](O[C@@H]2O[C@H](C)C[C@H](N(C)C)[C@H]2O)[C@](C)(OC)C[C@@H](C)C(=O)[C@H](C)[C@@H](O)[C@]1(C)O", "note": "[Clarithromycin]", "Results of drug sensitivity test of strains": "S"}
{"compound": "Polymyxin B", "Results of drug sensitivity test of strains": "R", "drug sensitivity of the strain, result in words": "drug resistance"}
{"compound": "CC1COc2c(N3CCN(C)CC3)c(F)cc3c(=O)c(C(=O)O)cn1c23", "note": "(stereo not shown) [Ofloxacin]", "Results of drug sensitivity test of strains": "R"}
{"compound": "NC[C@H]1O[C@H](O[C@H]2[C@H](O)[C@@H](O[C@H]3O[C@H](CO)[C@@H](O)[C@H](N)[C@H]3O)[C@H](N)C[C@@H]2N)[C@H](N)C[C@@H]1O", "note": "[Tobramycin]", "Results of drug sensitivity test of strains": "R", "drug sensitivity of the strain, result in words": "drug resistance"}
{"compound": "CN(C)[C@@H]1C(O)=C(C(N)=O)C(=O)[C@@]2(O)C(O)=C3C(=O)c4c(O)cccc4[C@@](C)(O)[C@H]3C[C@@H]12", "note": "[Tetracycline]", "Results of drug sensitivity test of strains": "R"}
{"compound": "Neomycin", "Results of drug sensitivity test of strains": "R", "drug sensitivity of the strain, result in words": "drug resistance"}
{"compound": "CN[C@H](CC(C)C)C(=O)N[C@H]1C(=O)N[C@@H](CC(N)=O)C(=O)N[C@H]2C(=O)N[C@H]3C(=O)N[C@H](C(=O)N[C@H](C(=O)O)c4cc(O)cc(O)c4-c4cc3ccc4O)[C@H](O)c3ccc(c(Cl)c3)Oc3cc2cc(c3O[C@@H]2O[C@H](CO)[C@@H](O)[C@H](O)[C@H]2O[C@H]2C[C@](C)(N)[C@H](O)[C@H](C)O2)Oc2ccc(cc2Cl)[C@H]1O", "note": "[Vancomycin]", "Results of drug sensitivity test of strains": "S"}
{"compound": "CC1(C)S[C@@H]2[C@H](NC(=O)C(C(=O)O)c3ccccc3)C(=O)N2[C@H]1C(=O)O", "note": "(stereo partly shown) [Carbenicillin]", "Results of drug sensitivity test of strains": "S"}
